Measured values taken from patent publication US5840684A, “Glycopeptide antibiotic derivatives” (Eli Lilly and Company, priority 1995, dated 1998).
Values after ≈ are worked out from the molar mass of the structure shown.

Experiments:
[1] = test system: Entercoccus faecium 276; test: broth micro-dilution MIC; assay type: cell-based
Experimental: (§1) The MIC's were determined using a standard broth micro-dilution assay.

[2] = test system: Entercoccus faecium 180-1; test: broth micro-dilution MIC; assay type: cell-based
Experimental: as §1

[3] = test system: Staphylococcus aureus 489; test: broth micro-dilution MIC; assay type: cell-based
Experimental: as §1

[4] = test system: Staphylococcus aureus SA1199; test: broth micro-dilution MIC; assay type: cell-based
Experimental: as §1

[5] = test system: Staphylococcus aureus 446; test: broth micro-dilution MIC; assay type: cell-based
Experimental: as §1

[6] = test system: Staphylococcus aureus SA1199A; test: broth micro-dilution MIC; assay type: cell-based
Experimental: as §1

[7] = test system: Streptococcus pyogenes C203; test: broth micro-dilution MIC; assay type: cell-based
Experimental: as §1

[8] = test system: Staphylococcus aureus X778; test: broth micro-dilution MIC; assay type: cell-based
Experimental: as §1

[9] = test system: Staphylococcus aureus X400; test: broth micro-dilution MIC; assay type: cell-based
Experimental: as §1

[10] = test system: vancomycin-resistant enterococci; test: broth micro-dilution, mean geometric MIC; assay type: cell-based, Enterococcus faecium and Enterococcus faecalis; conditions: enterococci, 24-hour incubation
[11] = test system: Staphylococcus aureus SA1199B; assay type: cell-based
Experimental: as §1

[12] = test system: Staphylococcus aureus S13E; assay type: cell-based
Experimental: as §1

[13] = test system: vancomycin-susceptible enterococci; test: broth micro-dilution, mean geometric MIC; assay type: cell-based, Enterococcus faecium and Enterococcus faecalis; conditions: enterococci, 24-hour incubation
[14] = test system: Staphylococcus haemolyticus 415; test: broth micro-dilution MIC; assay type: cell-based
Experimental: (§2) The formula I compounds have in vitro and in vivo activity against Gram-positive pathogenic bacteria. The MIC's were determined using a standard broth micro-dilution assay.

[15] = test system: Entercoccus faecium 2041; test: broth micro-dilution MIC; assay type: cell-based; conditions: Entercoccus faecium 2041
Experimental: as §2

[16] = test system: Staphylococcus haemolyticus 105; test: broth micro-dilution MIC; assay type: cell-based
Experimental: as §2

[17] = test system: Staphylococcus epidermidis 270; test: broth micro-dilution MIC; assay type: cell-based
Experimental: as §2

[18] = test system: Enterococcus gallinarum 245; test: broth micro-dilution MIC; assay type: cell-based; conditions: Enterococcus gallinarum 245
Experimental: as §2

[19] = test system: Streptococcus pneumoniae P1; test: broth micro-dilution MIC; assay type: cell-based
Experimental: as §2

[20] = test system: Staphylococcus aureus 447; test: broth micro-dilution MIC; assay type: cell-based
Experimental: as §1

[21] = test system: Entercoccus faecium 180; test: broth micro-dilution MIC; assay type: cell-based; conditions: Entercoccus faecium 180
Experimental: as §2

| SMILES | MIC [1] | MIC [2] | MIC [3] | MIC [4] | MIC [6] | MIC [7] | MIC [8] | MIC [9] | mean geometric MIC, Vancomycin Resistant Strains [10] | MIC [11] | MIC [12] | mean geometric MIC, Vancomycin Sensitive Strains [13] | MIC [14] | MIC [15] | MIC [16] | MIC [17] | MIC [18] | MIC [19] | MIC [20] | MIC [21] | other results |
| --- | --- | --- | --- | --- | --- | --- | --- | --- | --- | --- | --- | --- | --- | --- | --- | --- | --- | --- | --- | --- | --- |
| CNC(CC(C)C)C(=O)NC1C(=O)NC(CC(N)=O)C(=O)NC2C(=O)NC3C(=O)NC(C(=O)NC(C(=O)O)c4cc(O)cc(O)c4-c4cc3ccc4O)C(OC3CC(C)(N)C(O)C(C)O3)c3ccc(c(Cl)c3)Oc3cc2cc(c3OC2OC(CO)C(O)C(O)C2OC2CC(C)(NCc3ccc(Oc4ccc(OC)cc4)cc3)C(O)C(C)O2)Oc2ccc(cc2Cl)C1O (stereo not shown) [Compound 98] | 0.125 µg/mL (≈ 0.0693 µM) | ≤ 0.06 µg/mL | ≤ 0.06 µg/mL | 0.5 µg/mL (≈ 0.277 µM) | ≤ 0.06 µg/mL | ≤ 0.06 µg/mL | ≤ 0.06 µg/mL | ≤ 0.06 µg/mL | 2.4 µg/mL | 1 µg/mL (≈ 0.554 µM) | 0.5 µg/mL (≈ 0.277 µM) | 0.095 µg/mL | 1 µg/mL (≈ 0.554 µM) | ≤ 0.06 µg/mL | 1 µg/mL (≈ 0.554 µM) | ≤ 0.06 µg/mL | 1 µg/mL (≈ 0.554 µM) | ≤ 0.06 µg/mL |  |  | MIC [5]: 0.5 µg/mL (≈ 0.277 µM) |
| CNC(CC(C)C)C(=O)NC1C(=O)NC(CC(N)=O)C(=O)NC2C(=O)NC3C(=O)NC(C(=O)NC(C(=O)O)c4cc(O)cc(O)c4-c4cc3ccc4O)C(OC3CC(C)(N)C(O)C(C)O3)c3ccc(c(Cl)c3)Oc3cc2cc(c3OC2OC(CO)C(O)C(O)C2OC2CC(C)(NCc3ccc(-c4ccccn4)cc3)C(O)C(C)O2)Oc2ccc(cc2Cl)C1O (stereo not shown) [Compound 137] | ≤ 0.06 µg/mL | ≤ 0.06 µg/mL | ≤ 0.06 µg/mL | ≤ 0.06 µg/mL | ≤ 0.06 µg/mL | ≤ 0.06 µg/mL | ≤ 0.06 µg/mL | ≤ 0.06 µg/mL | 6.7 µg/mL | ≤ 0.06 µg/mL | ≤ 0.06 µg/mL | 0.38 µg/mL | 8 µg/mL (≈ 4.55 µM) | ≤ 0.06 µg/mL | 2 µg/mL (≈ 1.14 µM) | 0.5 µg/mL (≈ 0.284 µM) | 8 µg/mL (≈ 4.55 µM) | ≤ 0.06 µg/mL | 4 µg/mL (≈ 2.27 µM) | 0.125 µg/mL (≈ 0.071 µM) |  |
| CNC(CC(C)C)C(=O)NC1C(=O)NC(CC(N)=O)C(=O)NC2C(=O)NC3C(=O)NC(C(=O)NC(C(=O)O)c4cc(O)cc(O)c4-c4cc3ccc4O)C(OC3CC(C)(N)C(O)C(C)O3)c3ccc(c(Cl)c3)Oc3cc2cc(c3OC2OC(CO)C(O)C(O)C2OC2CC(C)(NCc3ccc(OC(C)=O)cc3)C(O)C(C)O2)Oc2ccc(cc2Cl)C1O (stereo not shown) [Compound 138] | ≤ 0.06 µg/mL | ≤ 0.06 µg/mL | ≤ 0.06 µg/mL | ≤ 0.06 µg/mL | ≤ 0.06 µg/mL | ≤ 0.06 µg/mL |  | ≤ 0.0606 µg/mL | 38 µg/mL | 0.5 µg/mL (≈ 0.287 µM) | ≤ 0.06 µg/mL |  | 8 µg/mL (≈ 4.6 µM) | ≤ 0.06 µg/mL | 4 µg/mL (≈ 2.3 µM) | 2 µg/mL (≈ 1.15 µM) |  | ≤ 0.06 µg/mL | 2 µg/mL (≈ 1.15 µM) | 4 µg/mL (≈ 2.3 µM) |  |
| CNC(CC(C)C)C(=O)NC1C(=O)NC(CC(N)=O)C(=O)NC2C(=O)NC3C(=O)NC(C(=O)NC(C(=O)O)c4cc(O)cc(O)c4-c4cc3ccc4O)C(OC3CC(C)(N)C(O)C(C)O3)c3ccc(cc3)Oc3cc2cc(c3OC2OC(CO)C(O)C(O)C2OC2CC(C)(NCc3ccc(-c4ccccc4)cc3)C(O)C(C)O2)Oc2ccc(cc2)C1O (stereo not shown) [Compound 183] |  | ≤ 0.06 µg/mL | ≤ 0.06 µg/mL | ≤ 0.06 µg/mL | ≤ 0.06 µg/mL | ≤ 0.06 µg/mL | ≤ 0.06 µg/mL | ≤ 0.06 µg/mL | 23 µg/mL | ≤ 0.06 µg/mL | ≤ 0.06 µg/mL | 0.130 µg/mL | ≤ 0.06 µg/mL | ≤ 0.06 µg/mL | ≤ 0.06 µg/mL | ≤ 0.06 µg/mL | 0.5 µg/mL (≈ 0.296 µM) | ≤ 0.06 µg/mL | ≤ 0.06 µg/mL | 2 µg/mL (≈ 1.18 µM) | MIC [5]: ≤ 0.06 µg/mL |
| CNC(CC(C)C)C(=O)NC1C(=O)NC(CC(N)=O)C(=O)NC2C(=O)NC3C(=O)NC(C(=O)NC(C(=O)O)c4cc(O)cc(O)c4-c4cc3ccc4O)C(OC3CC(C)(N)C(O)C(C)O3)c3ccc(c(Cl)c3)Oc3cc2cc(c3OC2OC(CO)C(O)C(O)C2OC2CC(C)(NCc3ccc(-c4ccc(OC)c(OC)c4)cc3)C(O)C(C)O2)Oc2ccc(cc2Cl)C1O (stereo not shown) [Compound 215] | 2 µg/mL (≈ 1.1 µM) | ≤ 0.06 µg/mL | 2 µg/mL (≈ 1.1 µM) | ≤ 0.06 µg/mL | 0.5 µg/mL (≈ 0.275 µM) | ≤ 0.06 µg/mL | ≤ 0.06 µg/mL | 0.5 µg/mL (≈ 0.275 µM) | 2.8 µg/mL | 1 µg/mL (≈ 0.55 µM) | 2 µg/mL (≈ 1.1 µM) |  | 1 µg/mL (≈ 0.55 µM) |  | 2 µg/mL (≈ 1.1 µM) |  |  | ≤ 0.06 µg/mL | 0.5 µg/mL (≈ 0.275 µM) | ≤ 0.06 µg/mL | MIC [5]: 0.5 µg/mL (≈ 0.275 µM) |
| C=CCCCCNC1(C)CC(OC2C(Oc3c4cc5cc3Oc3ccc(cc3Cl)C(OC3CC(C)(N)C(O)C(C)O3)C3NC(=O)C(NC(=O)C5NC(=O)C(CC(N)=O)NC(=O)C(NC(=O)C(CC(C)C)NC)C(O)c5ccc(c(Cl)c5)O4)c4ccc(O)c(c4)-c4c(O)cc(O)cc4C(C(=O)O)NC3=O)OC(CO)C(O)C2O)OC(C)C1O (stereo not shown) [Compound 217] | ≤ 0.06 µg/mL | ≤ 0.06 µg/mL | ≤ 0.06 µg/mL | ≤ 0.06 µg/mL | ≤ 0.06 µg/mL | ≤ 0.06 µg/mL | ≤ 0.06 µg/mL | ≤ 0.06 µg/mL | 13 µg/mL | 0.125 µg/mL (≈ 0.0746 µM) | ≤ 0.06 µg/mL | 0.57 µg/mL | 8 µg/mL (≈ 4.78 µM) | ≤ 0.06 µg/mL | 2 µg/mL (≈ 1.19 µM) | 0.5 µg/mL (≈ 0.299 µM) | 8 µg/mL (≈ 4.78 µM) | ≤ 0.06 µg/mL | 1 µg/mL (≈ 0.597 µM) | 2 µg/mL (≈ 1.19 µM) |  |
| CNC(CC(C)C)C(=O)NC1C(=O)NC(CC(N)=O)C(=O)NC2C(=O)NC3C(=O)NC(C(=O)NC(C(=O)O)c4cc(O)cc(O)c4-c4cc3ccc4O)C(OC3CC(C)(N)C(O)C(C)O3)c3ccc(c(Cl)c3)Oc3cc2cc(c3OC2OC(CO)C(O)C(O)C2OC2CC(C)(NCC3CCC(Cc4ccccc4)CC3)C(O)C(C)O2)Oc2ccc(cc2Cl)C1O (stereo not shown) [Compound 241] | ≤ 0.06 µg/mL | ≤ 0.06 µg/mL | 0.5 µg/mL (≈ 0.281 µM) | 1 µg/mL (≈ 0.562 µM) | ≤ 0.06 µg/mL | ≤ 0.06 µg/mL | 1 µg/mL (≈ 0.562 µM) | 0.5 µg/mL (≈ 0.281 µM) | 1.4 µg/mL | 1 µg/mL (≈ 0.562 µM) |  | 0.048 µg/mL | 1 µg/mL (≈ 0.562 µM) | ≤ 0.06 µg/mL | 1 µg/mL (≈ 0.562 µM) | 0.5 µg/mL (≈ 0.281 µM) | ≤ 0.06 µg/mL | ≤ 0.06 µg/mL | 1 µg/mL (≈ 0.562 µM) | ≤ 0.06 µg/mL | MIC [5]: 0.5 µg/mL (≈ 0.281 µM) |
